Numbers after ± are expanded uncertainties.

For this data set the following is noted: DSC.

Consider `Cc1ccc2c(c1)OCN(c1ccc(Cc3ccc(N4COc5cc(C)ccc5C4)cc3)cc1)C2`, for which the Triple point temperature (Crystal) is 435.15 ± 10 K.
As to `c1ccc2c(c1)CN(c1ccc(Cc3ccc(N4COc5ccccc5C4)cc3)cc1)CO2` [bis(4-(2H-benzo[e][1,3]oxazin-3(4H)-yl)phenyl)methane], the Triple point temperature reads like this: (Crystal 1) 357.15 ± 10 K; (Crystal 2) 328.15 ± 10 K.
With `Cc1ccc2c(c1)CN(c1ccc(Cc3ccc(N4COc5ccc(C)cc5C4)cc3)cc1)CO2`, the Triple point temperature (Crystal 1) worked out at 432.15 ± 10 K.
On to `Cc1cc(C)c2c(c1)CN(c1ccc(Cc3ccc(N4COc5c(C)cc(C)cc5C4)cc3)cc1)CO2`, for which the Triple point temperature (Crystal 1) is 406.15 ± 10 K and the Triple point temperature (Crystal 2) is given as 390.15 ± 10 K.

(Values after the NIST ThermoML archive (doi:10.1016/j.tca.2018.08.012).)
